Laboratory results published in PubChem BioAssay (NCI).
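1) Cells in 96-well plates. 2) Compound, 48 h, 5 concentrations. 3) Linear interpolation between surrounding doses. 4) Unreached endpoint = highest concentration. The concentration for full growth arrest is given as TGI.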 Where a SMILES comes first, the peptide text is derived from it. [ ]: non-standard residue; d: D form. β3hI = CC[CH](C)[CH](N)CC(=O)O

Tests used:
Assay in all cases: inhibition of tumour cell growth, NCI panel, 48 h
HOP-62 NSCLC = system: HOP-62 NSCLC
CCRF-CEM leukemia = system: CCRF-CEM leukemia
SF-295 CNS = system: SF-295 CNS

CC1CCC2C(C(=O)O[C@H]3C4CCO[C@@H](OC5OC(CO)C(O)C(O)C5O)C4[C@@]4(CO)O[C@@H]34)=CO[C@@H](OC3OC(CO)C(O)C(O)C3O)C12 (stereo partly drawn)
TGI (HOP-62 NSCLC): > 10 µM
TGI (CCRF-CEM leukemia): > 10 µM
TGI (SF-295 CNS): > 10 µM

Cc1n[nH]c(=O)n1/N=C/c1c[nH]c2ccccc12
TGI (HOP-62 NSCLC): > 100 µM
TGI (CCRF-CEM leukemia): > 100 µM
TGI (SF-295 CNS): > 100 µM

CCOP(=O)(OCC)/C(C#N)=C/c1cccn1CC(C)C
TGI (HOP-62 NSCLC): > 100 µM
TGI (SF-295 CNS): > 100 µM

FC(F)(Sc1ccccc1)c1nc2ccccc2o1
TGI (HOP-62 NSCLC): > 100 µM
TGI (CCRF-CEM leukemia): 55.5 µM
TGI (SF-295 CNS): > 100 µM

CC1(C)CN=C(Nc2cccc(C(F)(F)F)c2)S1
TGI (HOP-62 NSCLC): > 100 µM
TGI (CCRF-CEM leukemia): > 100 µM
TGI (SF-295 CNS): > 100 µM

O=C(CCc1cccc(O)c1)NCCc1ccc(O)cc1
TGI (HOP-62 NSCLC): > 100 µM
TGI (CCRF-CEM leukemia): > 100 µM
TGI (SF-295 CNS): > 100 µM

N/N=C1\CCCc2c1no[n+]2[O-]
TGI (HOP-62 NSCLC): > 100 µM
TGI (CCRF-CEM leukemia): > 100 µM
TGI (SF-295 CNS): > 100 µM

CCOC(=O)c1[nH]c2ccccc2c1C(=O)C[C@H](NC(=O)C(F)(F)F)C(=O)OC
TGI (HOP-62 NSCLC): > 100 µM
TGI (CCRF-CEM leukemia): > 100 µM
TGI (SF-295 CNS): > 100 µM

COc1ccc2[nH]c3c(c2c1)COc1ccccc1C3=O
TGI (HOP-62 NSCLC): > 100 µM
TGI (CCRF-CEM leukemia): > 100 µM
TGI (SF-295 CNS): > 100 µM

O=C(O)c1ccc(C(c2c(O)c3ccccc3oc2=O)c2c(O)c3ccccc3oc2=O)cc1
TGI (HOP-62 NSCLC): > 100 µM
TGI (CCRF-CEM leukemia): > 100 µM
TGI (SF-295 CNS): > 100 µM

CN(C)c1ccc(/C=C(\NC(=O)c2ccccc2)C(=O)NC(CCC(=O)O)C(=O)O)cc1 (stereo not drawn)
TGI (HOP-62 NSCLC): > 100 µM
TGI (CCRF-CEM leukemia): > 100 µM
TGI (SF-295 CNS): > 100 µM

CC(=O)N[C@H]1CCCC[C@@H]1OC(C)=O
TGI (HOP-62 NSCLC): > 100 µM
TGI (SF-295 CNS): > 100 µM

CC(CO)C1=CC(C#CCOCc2ccccc2)N(C(=O)Oc2ccccc2)c2ccccc21 (stereo not drawn)
TGI (HOP-62 NSCLC): > 100 µM
TGI (CCRF-CEM leukemia): > 100 µM
TGI (SF-295 CNS): 71.9 µM

O=[N+]([O-])c1cc(Cl)cc2cc(Cl)cnc12
TGI (HOP-62 NSCLC): > 100 µM
TGI (CCRF-CEM leukemia): > 100 µM
TGI (SF-295 CNS): > 100 µM

COc1nc2sc3c(c2c(=O)n1CCCSSCCCn1c(OC)nc2sc4c(c2c1=O)CCCC4)CCCC3
TGI (HOP-62 NSCLC): > 100 µM
TGI (CCRF-CEM leukemia): > 100 µM
TGI (SF-295 CNS): > 100 µM

c1ccc(/N=N/Nc2ccc(-c3nc4ccccc4[nH]3)cc2)nc1
TGI (HOP-62 NSCLC): 30.2 µM
TGI (CCRF-CEM leukemia): 9.79 µM
TGI (SF-295 CNS): 35.9 µM

O=C(c1cccnc1)N1N=C(c2ccc(Cl)cc2)CC1(O)c1cc(F)c(Cl)cc1Cl (stereo not drawn)
TGI (HOP-62 NSCLC): 91.3 µM
TGI (CCRF-CEM leukemia): > 100 µM
TGI (SF-295 CNS): 56.1 µM

COC(=O)C(Cc1ccccc1)OC(=O)C(N)CC(=O)O (stereo not drawn)
TGI (HOP-62 NSCLC): > 100 µM
TGI (SF-295 CNS): > 100 µM

CCN(CC)CCCNc1nc2ccccc2c2[nH]c3ccc(OC)cc3c12
TGI (HOP-62 NSCLC): 3 µM
TGI (CCRF-CEM leukemia): 3.87 µM
TGI (SF-295 CNS): 2.39 µM

COc1cccc(N2C(=O)CSC2c2cc(OC)c(OC)c(OC)c2)c1 (stereo not drawn)
TGI (CCRF-CEM leukemia): 65 µM
TGI (SF-295 CNS): 97.8 µM

CCOC(=O)CCC(NC(=O)Cc1ccc(Oc2nc3ccccc3nc2-c2cccs2)cc1)C(=O)OCC (stereo not drawn)
TGI (HOP-62 NSCLC): 11.8 µM
TGI (CCRF-CEM leukemia): > 100 µM
TGI (SF-295 CNS): > 100 µM

COc1cc([C@@H]2c3[nH]c4ccccc4c3C(Nc3ccc([N+](=O)[O-])cc3)[C@H]3COC(=O)N23)cc(OC)c1O (stereo partly drawn)
TGI (HOP-62 NSCLC): 0.302 µM
TGI (CCRF-CEM leukemia): 0.325 µM
TGI (SF-295 CNS): 1.02 µM

c1cncc(-c2ncc3cccnc3n2)c1
TGI (HOP-62 NSCLC): > 100 µM
TGI (CCRF-CEM leukemia): > 100 µM
TGI (SF-295 CNS): > 100 µM

CCOC(=O)CCC(NC(=O)c1ccc(Nc2nc3ccccc3nc2-c2cccs2)cc1)C(=O)OCC (stereo not drawn)
TGI (HOP-62 NSCLC): > 100 µM
TGI (CCRF-CEM leukemia): > 100 µM
TGI (SF-295 CNS): > 100 µM

CCOC(=O)[C@@]12CCC(C1=O)[C@](C)(O)C[C@@H]2c1ccccc1
TGI (HOP-62 NSCLC): > 100 µM
TGI (CCRF-CEM leukemia): > 100 µM
TGI (SF-295 CNS): > 100 µM

Cc1cccc(-c2cc(=S)c3cc(N4CCCC4)ccc3[nH]2)c1
TGI (HOP-62 NSCLC): > 100 µM
TGI (CCRF-CEM leukemia): > 100 µM
TGI (SF-295 CNS): > 100 µM

O=C(OCC1OC(c2nn[nH]n2)C(OC(=O)c2ccccc2)C1OC(=O)c1ccccc1)c1ccccc1 (stereo not drawn)
TGI (HOP-62 NSCLC): > 100 µM
TGI (CCRF-CEM leukemia): > 100 µM
TGI (SF-295 CNS): > 100 µM

CCC(C)C(CC(=O)N1CCCC1C(=O)NC(C(=O)NC(C(=O)NCC(=O)NC(CC(N)=O)C(=O)NC(C(=O)NC(C(=O)NC(CCCCN)C(N)=O)C(C)CC)C(C)CC)C(C)C)C(C)CC)NC(=O)C(N)C(C)CC (stereo not drawn) (H-I[β3hI]PIVGNIIK-NH2; configuration not given here)
TGI (HOP-62 NSCLC): > 50 µM
TGI (CCRF-CEM leukemia): > 50 µM
TGI (SF-295 CNS): > 50 µM

O=[N+]([O-])c1cc(-[n+]2cc([O-])on2)ccc1F
TGI (HOP-62 NSCLC): 30.3 µM
TGI (CCRF-CEM leukemia): 38.6 µM
TGI (SF-295 CNS): 31.5 µM
